# Columns and labels:
# [1] = biological target: Alpha-2A adrenergic receptor (Homo sapiens) (UniProt P08913); assay: ALPHA2A/H Eurofins-Panlabs selectivity data (BI); settings: Compound concentration 10.0 uM
# [2] = biological target: Voltage-dependent L-type calcium channel subunit alpha-1C (DHP site) (Rattus norvegicus, UniProt P22002); assay: CA+/DHPSI/RA Eurofins-Panlabs selectivity data (BI); settings: compound concentration 10 uM, read-out: % Ctrl
# [3] = biological target: D(2) dopamine receptor (Homo sapiens) (UniProt P14416); assay: D2S/HU Eurofins-Panlabs selectivity data (BI); settings: Compound concentration 10.0 uM
# [4] = biological target: Pyroglutamylated RF-amide peptide receptor (Homo sapiens) (UniProt Q96P65); assay: GPR103 Eurofins-Panlabs selectivity data (BI); settings: Compound concentration 10.0 uM
# [5] = biological target: hERG (KCNH2) potassium channel (Homo sapiens, UniProt Q12809); assay: K+/HERG Eurofins-Panlabs selectivity data (BI); settings: compound concentration 10 uM, read-out: % Ctrl
# [6] = biological target: Muscarinic acetylcholine receptor M3 (Homo sapiens) (UniProt P20309); assay: M3/HU Eurofins-Panlabs selectivity data (BI); settings: Compound concentration 10.0 uM
# [7] = biological target: Mu-type opioid receptor (Homo sapiens) (UniProt P35372); assay: MU/HU Eurofins-Panlabs selectivity data (BI); settings: Compound concentration 10.0 uM
# [8] = biological target: Nicotinic acetylcholine receptor alpha-1/beta-1 (Homo sapiens) (UniProt P02708+P11230); assay: NACH_BS_N/H Eurofins-Panlabs selectivity data (BI); type: protein-complex assay; settings: Compound concentration 10.0 uM
# [9] = biological target: Sodium-dependent noradrenaline transporter (Homo sapiens) (UniProt P23975); assay: NETRANS/H Eurofins-Panlabs selectivity data (BI); settings: Compound concentration 10.0 uM
# [10] = biological target: Glutamate receptor ionotropic, NMDA 2A (Rattus norvegicus) (UniProt Q00959); assay: NMDAPHSI/R Eurofins-Panlabs selectivity data (BI); settings: Compound concentration 10.0 uM
# [11] = biological target: Protein kinase C alpha type (Mus musculus) (UniProt P20444); assay: PHORBOLE/M Eurofins-Panlabs selectivity data (BI); settings: Compound concentration 10.0 uM
# [12] = biological target: Sigma non-opioid intracellular receptor 1 (Homo sapiens) (UniProt Q99720); assay: SIGMA1/HU Eurofins-Panlabs selectivity data (BI); settings: Compound concentration 10.0 uM
# [13] = biological target: Tyrosine-protein kinase ABL2 (Homo sapiens) (UniProt P42684); settings: Compound concentration 1000.0 nM
# [14] = biological target: Aurora kinase C (Homo sapiens) (UniProt Q9UQB9); settings: Compound concentration 1000.0 nM
# [15] = biological target: Calcium/calmodulin-dependent protein kinase type II subunit gamma (Homo sapiens) (UniProt Q13555); settings: Compound concentration 1000.0 nM
# [16] = biological target: Myotonin-protein kinase (Homo sapiens) (UniProt Q09013); settings: Compound concentration 1000.0 nM
# [17] = biological target: Dual specificity tyrosine-phosphorylation-regulated kinase 1A (Homo sapiens) (UniProt Q13627); settings: Compound concentration 1000.0 nM
# [18] = test system: Epidermal growth factor receptor (Homo sapiens), P00533 [UNDEFINED MUTATION]; settings: Compound concentration 1000.0 nM
# Epidermal growth factor receptor (Homo sapiens), P00533 [UNDEFINED MUTATION], sequence (P00533 whole entry, looked up, change not shown): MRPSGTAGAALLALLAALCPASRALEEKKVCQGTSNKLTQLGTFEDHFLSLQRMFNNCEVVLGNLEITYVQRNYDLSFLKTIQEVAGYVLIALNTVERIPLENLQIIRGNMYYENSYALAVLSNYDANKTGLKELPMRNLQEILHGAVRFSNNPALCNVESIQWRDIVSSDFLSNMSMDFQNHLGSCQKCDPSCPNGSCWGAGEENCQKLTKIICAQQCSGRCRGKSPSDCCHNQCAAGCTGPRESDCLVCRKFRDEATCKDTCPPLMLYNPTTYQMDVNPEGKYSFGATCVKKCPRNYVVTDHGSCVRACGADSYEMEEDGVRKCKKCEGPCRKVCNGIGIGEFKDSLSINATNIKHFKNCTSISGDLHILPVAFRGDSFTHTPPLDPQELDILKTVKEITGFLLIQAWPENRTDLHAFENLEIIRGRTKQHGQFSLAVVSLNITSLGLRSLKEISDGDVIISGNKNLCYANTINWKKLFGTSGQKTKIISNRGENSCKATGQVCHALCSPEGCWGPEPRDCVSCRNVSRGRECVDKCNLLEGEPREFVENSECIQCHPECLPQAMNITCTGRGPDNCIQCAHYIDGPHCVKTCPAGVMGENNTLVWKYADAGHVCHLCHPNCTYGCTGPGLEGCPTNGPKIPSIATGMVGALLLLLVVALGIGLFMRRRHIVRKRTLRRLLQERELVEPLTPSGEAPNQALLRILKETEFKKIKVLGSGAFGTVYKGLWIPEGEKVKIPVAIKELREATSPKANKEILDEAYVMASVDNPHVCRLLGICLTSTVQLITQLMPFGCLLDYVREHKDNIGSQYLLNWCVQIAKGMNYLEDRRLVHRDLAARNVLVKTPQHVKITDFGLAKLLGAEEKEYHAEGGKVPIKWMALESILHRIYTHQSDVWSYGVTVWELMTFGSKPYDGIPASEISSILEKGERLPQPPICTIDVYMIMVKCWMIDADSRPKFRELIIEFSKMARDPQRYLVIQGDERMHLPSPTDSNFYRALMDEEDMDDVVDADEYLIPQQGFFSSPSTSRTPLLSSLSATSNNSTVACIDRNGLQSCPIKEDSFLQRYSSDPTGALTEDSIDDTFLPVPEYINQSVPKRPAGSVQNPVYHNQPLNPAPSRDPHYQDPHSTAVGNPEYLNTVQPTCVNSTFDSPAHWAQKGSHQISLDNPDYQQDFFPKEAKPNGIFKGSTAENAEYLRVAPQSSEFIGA
# [19] = biological target: Fibroblast growth factor receptor 3 (Homo sapiens) (UniProt P22607); settings: Compound concentration 1000.0 nM
# Fibroblast growth factor receptor 3 (Homo sapiens), sequence (P22607 23-806 limits assumed): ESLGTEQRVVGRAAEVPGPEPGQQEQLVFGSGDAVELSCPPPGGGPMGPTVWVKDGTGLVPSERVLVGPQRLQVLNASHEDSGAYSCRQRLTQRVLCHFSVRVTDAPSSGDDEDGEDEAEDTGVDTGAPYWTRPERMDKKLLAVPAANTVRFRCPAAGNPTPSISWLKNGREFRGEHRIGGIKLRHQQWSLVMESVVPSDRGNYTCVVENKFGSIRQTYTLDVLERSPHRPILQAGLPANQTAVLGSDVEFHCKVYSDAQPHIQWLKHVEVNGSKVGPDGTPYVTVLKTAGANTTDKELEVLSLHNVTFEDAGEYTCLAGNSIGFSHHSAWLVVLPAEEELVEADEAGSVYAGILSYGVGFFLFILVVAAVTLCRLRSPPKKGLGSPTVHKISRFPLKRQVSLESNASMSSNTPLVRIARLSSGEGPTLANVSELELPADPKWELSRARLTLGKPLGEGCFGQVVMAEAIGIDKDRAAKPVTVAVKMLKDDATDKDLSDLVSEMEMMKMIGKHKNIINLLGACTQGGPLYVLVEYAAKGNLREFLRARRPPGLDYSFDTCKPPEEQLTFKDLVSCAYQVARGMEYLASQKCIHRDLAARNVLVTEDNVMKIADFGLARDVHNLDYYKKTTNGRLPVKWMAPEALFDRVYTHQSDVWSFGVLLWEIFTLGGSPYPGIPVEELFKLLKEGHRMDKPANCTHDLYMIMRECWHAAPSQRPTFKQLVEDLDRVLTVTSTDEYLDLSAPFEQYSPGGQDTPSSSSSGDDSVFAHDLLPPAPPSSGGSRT
# [20] = biological target: Fibroblast growth factor receptor 4 (Homo sapiens) (UniProt P22455); settings: Compound concentration 1000.0 nM
# [21] = biological target: Interleukin-1 receptor-associated kinase 1 (Homo sapiens) (UniProt P51617); settings: Compound concentration 1000.0 nM
# Interleukin-1 receptor-associated kinase 1 (Homo sapiens), sequence (P51617 whole entry, looked up): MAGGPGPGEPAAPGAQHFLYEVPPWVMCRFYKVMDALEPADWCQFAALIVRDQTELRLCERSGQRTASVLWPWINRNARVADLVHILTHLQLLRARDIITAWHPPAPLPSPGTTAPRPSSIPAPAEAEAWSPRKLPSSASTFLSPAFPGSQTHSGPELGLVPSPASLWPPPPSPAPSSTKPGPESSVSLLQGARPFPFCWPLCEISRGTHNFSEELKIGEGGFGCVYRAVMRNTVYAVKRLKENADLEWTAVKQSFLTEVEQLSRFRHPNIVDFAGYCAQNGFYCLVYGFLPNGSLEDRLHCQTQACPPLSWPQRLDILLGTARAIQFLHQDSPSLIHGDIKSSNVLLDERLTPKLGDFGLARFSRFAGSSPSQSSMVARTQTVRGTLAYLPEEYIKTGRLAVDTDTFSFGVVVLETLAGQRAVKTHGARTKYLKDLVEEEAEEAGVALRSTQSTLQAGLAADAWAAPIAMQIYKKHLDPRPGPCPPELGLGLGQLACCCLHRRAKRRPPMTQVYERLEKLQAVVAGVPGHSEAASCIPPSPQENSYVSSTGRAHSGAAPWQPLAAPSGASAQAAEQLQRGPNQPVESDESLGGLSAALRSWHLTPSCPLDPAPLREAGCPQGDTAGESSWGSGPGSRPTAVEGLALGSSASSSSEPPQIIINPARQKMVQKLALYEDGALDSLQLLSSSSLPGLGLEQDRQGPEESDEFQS
# [22] = biological target: Tyrosine-protein kinase JAK1 (Homo sapiens) (UniProt P23458); settings: Compound concentration 1000.0 nM
# [23] = biological target: MAP/microtubule affinity-regulating kinase 4 (Homo sapiens) (UniProt Q96L34); settings: Compound concentration 1000.0 nM
# MAP/microtubule affinity-regulating kinase 4 (Homo sapiens), sequence (Q96L34 whole entry): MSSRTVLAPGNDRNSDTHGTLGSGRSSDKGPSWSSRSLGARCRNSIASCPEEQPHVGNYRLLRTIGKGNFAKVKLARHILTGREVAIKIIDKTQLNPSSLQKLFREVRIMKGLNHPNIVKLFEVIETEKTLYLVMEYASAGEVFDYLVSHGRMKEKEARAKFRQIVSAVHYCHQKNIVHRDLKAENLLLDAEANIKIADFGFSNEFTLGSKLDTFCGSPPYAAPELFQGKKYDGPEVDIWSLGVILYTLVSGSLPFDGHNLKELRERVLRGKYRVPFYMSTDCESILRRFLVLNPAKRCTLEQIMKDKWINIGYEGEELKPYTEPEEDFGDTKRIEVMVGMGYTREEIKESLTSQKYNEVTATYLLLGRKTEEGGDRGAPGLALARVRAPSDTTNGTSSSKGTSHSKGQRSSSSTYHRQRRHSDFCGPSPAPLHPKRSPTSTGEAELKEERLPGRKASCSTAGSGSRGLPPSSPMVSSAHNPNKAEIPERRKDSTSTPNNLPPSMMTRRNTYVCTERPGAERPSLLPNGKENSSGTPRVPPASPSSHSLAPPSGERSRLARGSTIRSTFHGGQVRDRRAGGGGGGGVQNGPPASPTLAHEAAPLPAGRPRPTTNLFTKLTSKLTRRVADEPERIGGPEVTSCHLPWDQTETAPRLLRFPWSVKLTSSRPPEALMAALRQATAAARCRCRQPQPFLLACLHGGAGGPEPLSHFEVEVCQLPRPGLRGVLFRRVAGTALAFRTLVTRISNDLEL
# [24] = biological target: Dual specificity mitogen-activated protein kinase kinase 5 (Homo sapiens) (UniProt Q13163); settings: Compound concentration 1000.0 nM
# [25] = biological target: Serine/threonine-protein kinase Nek4 (Homo sapiens) (UniProt P51957); settings: Compound concentration 1000.0 nM
# [26] = biological target: RAF proto-oncogene serine/threonine-protein kinase (Homo sapiens) (UniProt P04049); settings: Compound concentration 1000.0 nM
# RAF proto-oncogene serine/threonine-protein kinase (Homo sapiens), sequence (P04049 whole entry): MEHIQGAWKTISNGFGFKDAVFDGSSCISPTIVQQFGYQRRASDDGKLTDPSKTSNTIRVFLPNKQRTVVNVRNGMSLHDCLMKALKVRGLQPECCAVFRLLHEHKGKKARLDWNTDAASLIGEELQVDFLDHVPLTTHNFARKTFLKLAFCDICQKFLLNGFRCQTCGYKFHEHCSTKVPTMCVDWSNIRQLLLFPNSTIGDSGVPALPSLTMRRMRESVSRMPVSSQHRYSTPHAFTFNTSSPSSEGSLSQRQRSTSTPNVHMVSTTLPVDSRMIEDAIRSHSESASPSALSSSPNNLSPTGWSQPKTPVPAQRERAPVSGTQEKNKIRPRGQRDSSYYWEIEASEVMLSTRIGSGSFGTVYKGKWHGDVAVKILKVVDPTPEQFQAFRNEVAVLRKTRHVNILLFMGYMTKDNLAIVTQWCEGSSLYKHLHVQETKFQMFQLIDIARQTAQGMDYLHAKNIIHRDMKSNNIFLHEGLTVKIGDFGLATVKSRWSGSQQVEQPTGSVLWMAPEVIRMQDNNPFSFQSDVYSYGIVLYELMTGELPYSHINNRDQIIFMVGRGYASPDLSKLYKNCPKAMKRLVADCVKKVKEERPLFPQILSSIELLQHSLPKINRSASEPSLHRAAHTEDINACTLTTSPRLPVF
# [27] = test system: Proto-oncogene tyrosine-protein kinase receptor Ret (Homo sapiens), P07949 [V804L]; settings: Compound concentration 1000.0 nM
# [28] = biological target: Serine/threonine-protein kinase RIO2 (Homo sapiens) (UniProt Q9BVS4); settings: Compound concentration 1000.0 nM
# Serine/threonine-protein kinase RIO2 (Homo sapiens), sequence (Q9BVS4 whole entry, looked up): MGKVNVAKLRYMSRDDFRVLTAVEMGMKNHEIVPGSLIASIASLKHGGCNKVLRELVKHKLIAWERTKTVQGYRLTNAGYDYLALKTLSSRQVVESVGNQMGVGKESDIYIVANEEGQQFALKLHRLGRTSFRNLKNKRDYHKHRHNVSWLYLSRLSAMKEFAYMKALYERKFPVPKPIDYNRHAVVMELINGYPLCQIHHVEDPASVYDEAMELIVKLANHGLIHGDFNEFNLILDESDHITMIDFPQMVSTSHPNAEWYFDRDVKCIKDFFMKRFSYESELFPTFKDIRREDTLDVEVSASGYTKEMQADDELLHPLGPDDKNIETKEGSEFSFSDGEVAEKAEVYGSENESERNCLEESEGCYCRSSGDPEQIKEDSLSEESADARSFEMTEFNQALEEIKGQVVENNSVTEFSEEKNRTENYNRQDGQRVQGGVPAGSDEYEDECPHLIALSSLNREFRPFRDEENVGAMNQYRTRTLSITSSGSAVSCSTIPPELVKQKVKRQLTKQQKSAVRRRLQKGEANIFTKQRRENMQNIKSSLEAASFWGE
# [29] = biological target: Serine/threonine-protein kinase TBK1 (Homo sapiens) (UniProt Q9UHD2); settings: Compound concentration 1000.0 nM
# [30] = biological target: Tyrosine-protein kinase receptor Tie-1 (Homo sapiens) (UniProt P35590); settings: Compound concentration 1000.0 nM
# [31] = biological target: Histamine H2 receptor (Homo sapiens) (UniProt P25021); settings: Compound concentration 10.0 uM
# [32] = biological target: Muscarinic acetylcholine receptor M4 (Homo sapiens) (UniProt P08173); settings: Compound concentration 10.0 uM
# Rattus norvegicus = species on record: Rattus norvegicus; settings: Compound concentration 10.0 uM
# [33] = biological target: Sigma intracellular receptor 2 (Homo sapiens, UniProt Q5BJF2); settings: Compound concentration 10.0 uM
# Sigma intracellular receptor 2, sequence (Q5BJF2 whole entry): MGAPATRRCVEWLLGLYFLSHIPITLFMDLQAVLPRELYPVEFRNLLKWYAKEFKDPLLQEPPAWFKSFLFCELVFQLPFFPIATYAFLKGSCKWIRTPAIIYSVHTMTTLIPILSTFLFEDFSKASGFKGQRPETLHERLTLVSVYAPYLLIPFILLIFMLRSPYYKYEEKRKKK
# [34] = test system: Tyrosine-protein kinase ABL1 (Homo sapiens), P00519 [Y253F]; settings: Compound concentration 1000.0 nM
# [35] = biological target: Peripheral plasma membrane protein CASK (Homo sapiens) (UniProt O14936); settings: Compound concentration 1000.0 nM
# [36] = biological target: Dual specificity mitogen-activated protein kinase kinase 2 (Homo sapiens) (UniProt P36507); settings: Compound concentration 1000.0 nM
# [37] = biological target: Serine/threonine-protein kinase MRCK beta (Homo sapiens) (UniProt Q9Y5S2); settings: Compound concentration 1000.0 nM
# [38] = biological target: Uncharacterized serine/threonine-protein kinase SBK3 (Homo sapiens) (UniProt P0C264); settings: Compound concentration 1000.0 nM
# [39] = biological target: Alpha-2A adrenergic receptor (Homo sapiens) (UniProt P08913); settings: Compound concentration 10.0 uM
Compound,residual activity [13] [%],residual activity [14] [%],residual activity [15] [%],residual activity [16] [%],residual activity [17] [%],residual activity [18] [%],residual activity [19] [%],residual activity [20] [%],residual activity [21] [%],residual activity [22] [%],residual activity [23] [%],residual activity [25] [%],residual activity [26] [%],residual activity [27] [%],residual activity [28] [%],residual activity [29] [%],residual activity [30] [%],inhibition [32] [%],inhibition (Rattus norvegicus) [%],inhibition [33] [%],also measured
CCC(=O)N[C@H]1CC[C@@H](C(=O)N(C)c2ccc(-c3nc4ccccc4o3)cc2)C1 [BI 99179],100,100,95,100,63,100,98,100,83,100,100,99,100,98,84,78,100,28.9,3.17,33.6,residual activity [1]: 98%; activity at 10 µM [2]: 93% (not active); residual activity [3]: 95%; residual activity [4]: 101%; activity at 10 µM [5]: 105% (not active); residual activity [6]: 106%; residual activity [7]: 100%; residual activity [8]: 91%; residual activity [9]: 91%; residual activity [10]: 101%; residual activity [11]: 94%; residual activity [12]: 102%; residual activity [24]: 16%; inhibition [31]: -1.25%
CCC(=O)N[C@@H]1CC[C@H](C(=O)N(C)c2ccc(-c3nc4ccccc4o3)cc2)C1 [BI 99990],100,100,100,100,98,100,100,89,100,100,82,95,94,100,100,65,95,5.19,5.21,62.9,residual activity [34]: 95%; residual activity [35]: 83%; residual activity [36]: 100%; residual activity [37]: 100%; residual activity [38]: 88%; inhibition [39]: 11.2%
